Test results as given in publication PMC5488091, “Tellurite and Tellurate Reduction by the Aerobic Anoxygenic Phototroph Erythromonas ursincola, Strain KR99 Is Carried out by a Novel Membrane Associated Enzyme” (Microorganisms, 2017).
Where two headings read alike, the source gives them in different places.

Legend:
[1] = tested on: T1, tellurite reductase (membrane associated tellurite/tellurate reductase); assay: spectrophotometric tellurite reduction at […] nm; type: biochemical, Blastomonas ursincola; settings: electron donor; co-substrate tellurite; pH 7.0, 28 °C
T1 construct: native enzyme purified from Triton X-100 solubilised membranes of KR99; 117 kDa heterodimer (62 + 55 kDa, 1:1); MS nearest match GroEL of Blastomonas sp

[2] = tested on: T1, tellurite reductase (membrane associated tellurite/tellurate reductase); type: biochemical, Blastomonas ursincola; settings: co-substrate NADH (25 µL of 5 mM stock as printed), Tris HCl pH 7.0, 28 °C
[3] = biological target: tellurite reductase 55 kDa subunit of Erythromonas ursincola, strain KR99 (Erythromonas ursincola, strain KR99 (endogenous)); assay: SEC; endogenous enzyme co-purified from solubilised membranes; single band on 5% native PAGE; native mass by Superdex S-200 gel filtration in 20 mM Tris HCl pH 8.0; subunits by SDS-PAGE (12%) after boiling in 1% SDS with 2-mercaptoethanol

Compound: NC(=O)C1=CN([C@@H]2O[C@H](COP(=O)(O)OP(=O)(O)OC[C@H]3O[C@@H](n4cnc5c(N)ncnc54)[C@H](O)[C@@H]3O)[C@@H](O)[C@H]2O)C=CC1 [NADH]
- Km [1]: 81.5 µM

Compound: O=[Te](=O)(O)O [tellurate]
- Km ([2]; tellurate 0–5 mM): 1440 µM

Compound: O=[Te](O)O [tellurite]
- Km ([2]; tellurite 0–13 mM): 3360 µM

Compound: tellurite reductase 62 kDa subunit of Erythromonas ursincola, strain KR99 (natural protein)
- stoichiometry N [3]: 1
